Source: the supplement of paper PMC10627819

Test system: S. pneumoniae D39V
Test: fitness (endpoint OD595 vs no drug) (fraction); higher = more growth
Method in brief: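 Each well of a 384-well plate received 30 µl of culture at OD595 0.01, or 55 µl for S. pneumoniae. TSB, LB Lennox or CY served as media at 37 °C. OD595 was taken every 30 min for 14 h and corrected by subtracting the first reading. Fitness is the optical density at stationary-phase entry divided by the robust mean of no-drug controls, capped at 1.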

CC[C@H]1OC(=O)[C@H](C)[C@@H](O[C@H]2C[C@@](C)(OC)[C@@H](O)[C@H](C)O2)[C@H](C)[C@@H](O[C@@H]2O[C@H](C)C[C@H](N(C)C)[C@H]2O)[C@](C)(OC)C[C@@H](C)C(=O)[C@H](C)[C@@H](O)[C@]1(C)O [Clarithromycin] + CC1=C(C(=O)O)N2C(=O)[C@@H](NC(=O)[C@H](N)c3ccccc3)[C@H]2SC1 [Cephalexin]
fitness, one replicate
Details | first compound 0.007812 µg/mL | first compound 0.01562 µg/mL | first compound 0.03125 µg/mL | first compound 0.0625 µg/mL | first compound 0.125 µg/mL | first compound 0.25 µg/mL
partner 0.125 µg/mL | – | – | – | 0.701 | 0.33 | 0.138
partner 0.25 µg/mL | – | – | – | 0.723 | 0.381 | 0.174
partner 0.5 µg/mL | – | – | – | 0.777 | 0.4 | 0.163
partner 1 µg/mL | 0.314 | 0.417 | 0.236 | – | – | –
partner 2 µg/mL | 0.028 | 0.0414 | 0.0229 | – | – | –
partner 4 µg/mL | 0.0398 | 0.0811 | 0.0306 | – | – | –

fitness
Details | first compound 0.07 µg/mL | first compound 0.14 µg/mL | first compound 0.28 µg/mL
partner 1 µg/mL | 0.0665 | 0.0755 | 0.0377
partner 2 µg/mL | 0.0399 | 0.0839 | 0.0276
partner 4 µg/mL | 0.0364 | 0.0743 | 0.0463

CC[C@H]1OC(=O)[C@H](C)[C@@H](O[C@H]2C[C@@](C)(OC)[C@@H](O)[C@H](C)O2)[C@H](C)[C@@H](O[C@@H]2O[C@H](C)C[C@H](N(C)C)[C@H]2O)[C@](C)(OC)C[C@@H](C)C(=O)[C@H](C)[C@@H](O)[C@]1(C)O [Clarithromycin] + CN(C)[C@@H]1C(O)=C(C(N)=O)C(=O)[C@@]2(O)C(O)=C3C(=O)c4c(O)ccc(Cl)c4[C@@](C)(O)[C@H]3C[C@@H]12 [Chlortetracycline]
fitness, one replicate
Details | first compound 0.007812 µg/mL | first compound 0.01562 µg/mL | first compound 0.03125 µg/mL
partner 0.012 µg/mL | 0.693 | 0.688 | 0.542
partner 0.024 µg/mL | 0.844 | 0.654 | 0.455
partner 0.048 µg/mL | 0.693 | 0.519 | 0.244

fitness
Details | first compound 0.0625 µg/mL | first compound 0.07 µg/mL | first compound 0.125 µg/mL | first compound 0.14 µg/mL | first compound 0.25 µg/mL | first compound 0.28 µg/mL
partner 0.012 µg/mL | – | 0.0902 | – | 0.14 | – | 0.093
partner 0.024 µg/mL | – | 0.121 | – | 0.122 | – | 0.0945
partner 0.048 µg/mL | – | 0.123 | – | 0.132 | – | 0.118
partner 0.375 µg/mL | 0.0643 | – | 0.0595 | – | 0.0683 | –
partner 0.75 µg/mL | 0.0438 | – | 0.0485 | – | 0.0679 | –
partner 1.5 µg/mL | 0.0386 | – | 0.0516 | – | 0.0374 | –

CC[C@H]1OC(=O)[C@H](C)[C@@H](O[C@H]2C[C@@](C)(OC)[C@@H](O)[C@H](C)O2)[C@H](C)[C@@H](O[C@@H]2O[C@H](C)C[C@H](N(C)C)[C@H]2O)[C@](C)(OC)C[C@@H](C)C(=O)[C@H](C)[C@@H](O)[C@]1(C)O [Clarithromycin] + CO/N=C(\C(=O)N[C@@H]1C(=O)N2C(C(=O)O)=C(COC(C)=O)CS[C@H]12)c1csc(N)n1 [Cefotaxime]
fitness, one replicate
Details | first compound 0.007812 µg/mL | first compound 0.01562 µg/mL | first compound 0.03125 µg/mL
partner 0.0018 µg/mL | 0.903 | 0.874 | 0.652
partner 0.0035 µg/mL | 0.922 | 0.868 | 0.662
partner 0.007 µg/mL | 0.704 | 0.698 | 0.596

fitness
Details | first compound 0.0625 µg/mL | first compound 0.07 µg/mL | first compound 0.125 µg/mL | first compound 0.14 µg/mL | first compound 0.25 µg/mL | first compound 0.28 µg/mL
partner 0.0018 µg/mL | 0.643 | 0.155 | 0.36 | 0.11 | 0.134 | 0.0567
partner 0.0035 µg/mL | 0.626 | 0.149 | 0.354 | 0.106 | 0.136 | 0.0647
partner 0.007 µg/mL | 0.532 | 0.103 | 0.296 | 0.108 | 0.0943 | 0.0726

CC[C@H]1OC(=O)[C@H](C)[C@@H](O[C@H]2C[C@@](C)(OC)[C@@H](O)[C@H](C)O2)[C@H](C)[C@@H](O[C@@H]2O[C@H](C)C[C@H](N(C)C)[C@H]2O)[C@](C)(OC)C[C@@H](C)C(=O)[C@H](C)[C@@H](O)[C@]1(C)O [Clarithromycin] + CO/N=C(\C(=O)N[C@@H]1C(=O)N2C(C(=O)[O-])=C(C[N+]3(C)CCCC3)CS[C@H]12)c1csc(N)n1 [Cefepime]
fitness, one replicate
Details | first compound 0.007812 µg/mL | first compound 0.01562 µg/mL | first compound 0.03125 µg/mL
partner 0.0078 µg/mL | 0.887 | 0.866 | 0.673
partner 0.0155 µg/mL | 0.884 | 0.834 | 0.635
partner 0.031 µg/mL | 0.456 | 0.491 | 0.456

fitness
Details | first compound 0.0625 µg/mL | first compound 0.07 µg/mL | first compound 0.125 µg/mL | first compound 0.14 µg/mL | first compound 0.25 µg/mL | first compound 0.28 µg/mL
partner 0.007 µg/mL | 0.67 | – | 0.43 | – | 0.165 | –
partner 0.0078 µg/mL | – | 0.187 | – | 0.0821 | – | 0.103
partner 0.014 µg/mL | 0.675 | – | 0.458 | – | 0.181 | –
partner 0.0155 µg/mL | – | 0.168 | – | 0.105 | – | 0.108
partner 0.028 µg/mL | 0.611 | – | 0.358 | – | 0.136 | –
partner 0.031 µg/mL | – | 0.0769 | – | 0.102 | – | 0.091

CC[C@H]1OC(=O)[C@H](C)[C@@H](O[C@H]2C[C@@](C)(OC)[C@@H](O)[C@H](C)O2)[C@H](C)[C@@H](O[C@@H]2O[C@H](C)C[C@H](N(C)C)[C@H]2O)[C@](C)(OC)C[C@@H](C)C(=O)[C@H](C)[C@@H](O)[C@]1(C)O [Clarithromycin] + CO[C@@]12[C@H](COC(N)=O)C3=C(C(=O)C(C)=C(N)C3=O)N1C[C@@H]1N[C@@H]12 [Mitomycin C]
fitness, one replicate
Details | first compound 0.007812 µg/mL | first compound 0.01562 µg/mL | first compound 0.03125 µg/mL
partner 0.002 µg/mL | 0.798 | 0.763 | 0.596
partner 0.004 µg/mL | 0.727 | 0.692 | 0.539
partner 0.008 µg/mL | 0.546 | 0.558 | 0.379

fitness
Details | first compound 0.0625 µg/mL | first compound 0.07 µg/mL | first compound 0.125 µg/mL | first compound 0.14 µg/mL | first compound 0.25 µg/mL | first compound 0.28 µg/mL
partner 0.001075 µg/mL | 0.654 | – | 0.345 | – | 0.084 | –
partner 0.002 µg/mL | – | 0.139 | – | 0.0901 | – | 0.0614
partner 0.00215 µg/mL | 0.642 | – | 0.285 | – | 0.108 | –
partner 0.004 µg/mL | – | 0.142 | – | 0.0707 | – | 0.0988
partner 0.0043 µg/mL | 0.526 | – | 0.245 | – | 0.0525 | –
partner 0.008 µg/mL | – | 0.0708 | – | 0.039 | – | 0.0676
